Like-named read-outs stand apart in the source and are kept apart here.
What was measured:
[1] = system: CD40; test: Expression of antigen-presenting and costimulatory molecules of human peripheral blood-derived dendritic cells: CD40; format: cell-based
Protocol: (§1) Action on Expression of Antigen-Presenting Molecules and Costimulatory Molecules of Human Peripheral Blood-Derived Dendritic Cells
(§2) The dendritic cells obtained by the same method as in Test Example 2 were suspended in RPMI 1640 comprising 10% FCS containing 500 U/ml GM-CSF, 50 ng/ml IL-4, and 100 U/ml human recombinant tumor necrosis factor (2.5×10^6 cells/ml). Thereafter, the suspension was inoculated into a 6-well plate at an amount of 2.0 ml/well, and the test compound was then added thereto. The mixture was cultured at 37° C. for 3 days in an incubator containing 5% carbon dioxide. Thereafter, the suspended cells were recovered. The cells were then stained with fluoroisothiocyanate-labeled mouse monoclonal antibodies reacting with MHC class I (Bechman Coulter), CD1a (Immunotech), CD40 (Pharmingen), CD80 (Pharmingen), and CD83 (Immunotech). Thereafter, mean fluorescence intensity and the ratio of positive cells were measured by flow cytometry. The expression level was calculated by the formula “the mean fluorescence intensity x the ratio of positive cells,” and the inhibition rate of the surface antigen expression level of dendritic cells was then obtained by the following formula (8).
(§3) [formula] • Eexp: Expression level of surface antigens of dendritic cells cultured in the presence of test compound • Cexp: Expression level of surface antigens of dendritic cells cultured in the absence of test compound

[2] = system: MHC class I; test: Expression of antigen-presenting and costimulatory molecules of human peripheral blood-derived dendritic cells: MHC class I; format: cell-based
Protocol: as §1, §2, §3

[3] = system: human dendritic cells cultured with human allogenic T cells; test: Effect on the ability of human dendritic cells to induce the growth of allogenic T cells ([3H]-thymidine incorporation); format: cell-based; details: Homo sapiens; dendritic cells treated 3 days with test compound and TNF-α, then 5 days with allogenic T cells; read-out: IC50 (inhibition of DNA synthesis of lymphocytes)
Summary of the method: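 Immature human dendritic cells matured 3 days with compound plus TNF-α, then co-cultured with allogeneic T cells (2.5×10^3 DC : 2.0×10^5 T per well) for 5 days at 37 °C, 5% CO2. [3H]-thymidine added for the final 16 h; incorporation counted, inhibition versus compound-free cultures, IC50 derived.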

[4] = system: BALB/c mice; test: Effect on mouse plaque forming cells (PFCs) to sheep erythrocytes; format: in vivo; details: Oral, 50 mg/kg/single administration, twice a day for 4 days
Protocol: Effect on Mouse Plaque Forming Cells (PFCs)
Sheep erythrocytes (Nippon Seibutsu Zairyo Center, Co., Ltd.) were intraperitoneally administered to each of BALB/c mice (Charles River Japan, Inc.; female; 8-week-old) at an amount of 1.0×10^8 cells. Thereafter, a test compound was administered thereto twice a day for 4 days after the first administration (only once on the first day) (n=4). On the day subsequent to completion of the administration of the test compound, splenic cells were prepared from the mouse, and the number of PFCs to the sheep erythrocytes was counted by the method of Cunninham (Cunninham, A. J. et al., Immunology, vol. 14, p. 599 (1968)). The number of PFCs per number of splenic cells of 1.0×10^6 was obtained. The reduction rate of the number of PFC in the mouse to which the test compound had been administered, to the number of PFCs in a control mouse to which the test compound had not been administered but only a solvent had been administered, was calculated using the following formula (4).
[formula] • Eexp: The number of PFCs per 1×10^6 splenic cells of mouse to which test compound was administered • Cexp: The number of PFCs per 1×10^6 splenic cells of mouse to which solvent was administered

[5] = system: mouse splenic cells; test: Inhibitory action on blastogenesis of mouse splenic cells ([3H]-thymidine incorporation); format: cell-based; details: Mus musculus, Lymphocyte, 72 hours
Protocol: Inhibitory Action on Blastogenesis of Mouse Splenic Cells
The spleen was excised from each of BALB/c mice (Charles River Japan; female; 10-week-old), and it was allowed to pass through a mesh to obtain a single cell suspension. This single cell suspension was prepared to be 1.0×10^6 cells/ml. Thereafter, 200 μl of the suspension was fractionated into each well of a 96-well plate. Thereafter, as blastogenic stimulation, 5 μg/ml concanavalin A (Pharmacia) or 25 μg/ml Escherichia coli-derived lipopolysaccharide (DIFCO) was added to the well, and then, a solution containing a test compound with each different concentration was further added thereto at an amount of 20 μl/well. The obtained mixture was cultured at 37° C. for 72 hours in an incubator containing 5% carbon dioxide. Thereafter, a 1 μCi/10 μl/well [^3H]-thymidine solution was added thereto 64 hours after initiation of the culture. After completion of the culture (72 hours later), the cells were captured on a filter using a cell harvester, and they were then dried. Thereafter, scintillator was added thereto, and the radioactivity of [^3H]-thymidine incorporated into the cells was then measured using a liquid scintillation counter. The inhibition rate of the DNA synthesis was calculated using the aforementioned formula (3). Thereafter, the concentration of a test compound necessary for inhibition of 50% (IC50 value) was obtained.

[6] = system: MHC class II; test: Expression of antigen-presenting and costimulatory molecules of human peripheral blood-derived dendritic cells: MHC class II; format: cell-based

CC(C)NC(=O)Nc1nc2nccc(-c3cccs3)n2n1 [Example 029, 1-isopropyl-3-(7-thiophen-2-yl[1,2,4]triazolo[1,5-a]pyrimidin-2-yl)urea]
Expression inhibition rate by test compound (%), CD40 ([1]; Analyte 1, 3 days): 10.8% | Expression inhibition rate by test compound (%), CD40 ([1]; Analyte 2, 3 days): −5.4% | Expression inhibition rate by test compound (%), CD40 ([1]; Analyte 3, 3 days): 12.9% | Expression inhibition rate by test compound (%), MHC class I ([2]; Analyte 1, 3 days): 72.3% | Expression inhibition rate by test compound (%), MHC class I ([2]; Analyte 2, 3 days): 63.9% | Expression inhibition rate by test compound (%), MHC class I ([2]; Analyte 3, 3 days): 72.6% | IC50 [3]: 3.48 µM | Reduction rate (%) of number of PFCs [4]: 49.3% | IC50 ([5]; 5 μg/ml concanavalin A, read-out: Lymphocyte blastogenesis IC50 (μM), ConA stimulation): 0.71 µM | IC50 ([5]; 25 μg/ml Escherichia coli-derived lipopolysaccharide, read-out: Lymphocyte blastogenesis IC50 (μM), LPS stimulation): 0.3 µM | Expression inhibition rate by test compound (%), MHC class II ([6]; Analyte 1, 3 days): 65.6% | Expression inhibition rate by test compound (%), MHC class II ([6]; Analyte 2, 3 days): 93.3% | Expression inhibition rate by test compound (%), MHC class II ([6]; Analyte 3, 3 days): 50.2%

Reference: patent publication US7598244B2, “[1,2,4]triazolo[1,5,a]pyrimidin-2-ylurea derivative and use thereof” (Nippon Kayaku Kabushiki Kaisha, priority 2003, dated 2009)
